In patent publication US8633245B2, “PAI-1 inhibitor” (Institute of Medicinal Molecular Design, Inc., priority 2008, dated 2014):

Target: T1, recombinant human PAI-1 (Homo sapiens, UniProt P05121)
T1 construct: purchased Molecular Innovations, Inc
Assay: Test Example 2: human PAI-1 inhibitory activity (tPA fluorogenic substrate, pH 7.4 HEPES buffer)
Type: biochemical
Conditions: human PAI-1
Method: 0.1 M HEPES, 0.1 M NaCl. 1 mM EDTA. 0.1% Polyethylene glycol 8,000 (Hampton Research Corporation),
2 mM Dimethyldecylphoshine oxide [Apo-10] (Fluka Corporation)

T1 sequence (P05121 24-402): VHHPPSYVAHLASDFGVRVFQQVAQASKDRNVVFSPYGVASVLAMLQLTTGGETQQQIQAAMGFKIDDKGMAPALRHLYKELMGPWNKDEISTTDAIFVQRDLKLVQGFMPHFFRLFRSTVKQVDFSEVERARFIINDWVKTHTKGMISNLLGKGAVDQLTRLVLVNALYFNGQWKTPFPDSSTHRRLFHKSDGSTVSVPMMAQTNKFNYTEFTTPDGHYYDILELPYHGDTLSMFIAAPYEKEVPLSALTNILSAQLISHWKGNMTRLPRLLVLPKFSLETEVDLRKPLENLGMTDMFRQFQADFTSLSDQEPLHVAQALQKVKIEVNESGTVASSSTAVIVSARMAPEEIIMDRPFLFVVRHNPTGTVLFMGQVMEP

Inhibition Rate of PAI-1 Activity (%) (compound concentration 0.1 μM) | Inhibition Rate of PAI-1 Activity (%) (compound concentration 0.3 μM) | Inhibition Rate of PAI-1 Activity (%) (compound concentration 1 μM) | Inhibition Rate of PAI-1 Activity (%) (compound concentration 3 μM) | SMILES
7% | 13% | 70% | 98% | CC(C)(C)c1ccc(Oc2cc(-c3ccccc3OC(F)(F)F)ccc2OCC(=O)O)cc1 [Compound 456]
21% | 18% | 63% | >99% | CC(C)(C)c1ccc(Oc2cc(-c3ccc(Cl)cc3)ccc2OCC(=O)O)cc1 [Compound 457]
26% | 31% | 42% | 86% | CC(C)(C)c1ccc(Oc2cc(-c3ccc(F)cc3)ccc2OCC(=O)O)cc1 [Compound 459]
1% | 8% | 63% | >99% | CC(C)Oc1ccc(-c2ccc(OCC(=O)O)c(Oc3ccc(C(C)(C)C)cc3)c2)cc1 [Compound 460]
1% | 26% | 95% | 98% | CCCCOc1ccc(Oc2cc(-c3ccc(OC(F)(F)F)cc3)ccc2CCC(=O)O)cc1 [Compound 461]
37% | 94% | 97% | 95% | CC(C)(C)c1ccc(Sc2cc(-c3ccc(OC(F)(F)F)cc3)ccc2/C=C/C(=O)O)cc1 [Compound 462]
10% | 17% | 87% | 98% | CC(C)(C)c1ccc(-c2ccc(OCC(=O)O)c(Oc3cccc(C(C)(C)C)c3)c2)cc1 [Compound 465]
4% | 9% | 88% | >99% | CC(C)(C)c1ccc(Oc2cc(-c3ccccc3OC(F)(F)F)ccc2/C=C/C(=O)O)cc1 [Compound 466]
2% | 6% | 73% | >99% | CC(C)(C)c1ccc(Oc2cc(-c3ccccc3OC(F)(F)F)ccc2CCC(=O)O)cc1 [Compound 467]
1% | 5% | 86% | 97% | CCCCOc1ccc(-c2ccc(OCC(=O)O)c(Oc3ccc(C(C)(C)C)cc3)c2)cc1 [Compound 468]
4% | 22% | 96% | >99% | CC(C)(C)c1ccc(Oc2cc(-c3ccc4ccccc4c3)ccc2/C=C/C(=O)O)cc1 [Compound 469]
3% | 16% | 87% | >99% | CC(C)(C)c1ccc(Oc2cc(-c3ccc4ccccc4c3)ccc2CCC(=O)O)cc1 [Compound 470]
5% | 7% | 11% | 49% | CC(C)(C)c1ccc(Oc2cc(-c3ccc(C#N)cc3)ccc2OCC(=O)O)cc1 [Compound 471]
15% | 14% | 71% | >99% | CCCCOc1cccc(Oc2cc(-c3ccc(OC(F)(F)F)cc3)ccc2CCC(=O)O)c1 [Compound 472]
15% | 9% | 26% | >99% | CC(C)(C)Oc1ccc(Oc2cc(-c3ccc(OC(F)(F)F)cc3)ccc2CCC(=O)O)cc1 [Compound 473]
2% | 11% | 43% | >99% | O=C(O)CCc1ccc(-c2ccc(OC(F)(F)F)cc2)cc1Oc1ccc(C(F)(F)F)cc1 [Compound 474]
4% | 27% | 94% | >99% | CCC(C)(C)c1ccc(Oc2cc(-c3ccc(OC(F)(F)F)cc3)ccc2CCC(=O)O)cc1 [Compound 475]
0% | 3% | 65% | >99% | O=C(O)CCc1ccc(-c2ccc(OC(F)(F)F)cc2)cc1Oc1ccc2ccccc2c1 [Compound 476]
7% | 21% | 60% | >99% | O=C(O)/C=C/c1ccc(-c2ccc(OC(F)(F)F)cc2)cc1Oc1ccc(OC(F)(F)F)cc1 [Compound 477]

Inhibition Rate of PAI-1 Activity (%) (compound concentration 0.1 μM) | Inhibition Rate of PAI-1 Activity (%) (compound concentration 0.3 μM) | Inhibition Rate of PAI-1 Activity (%) (compound concentration 1 μM) | Inhibition Rate of PAI-1 Activity (%) (compound concentration 3 μM) | SMILES
11% | 33% | 90% | >99% | CC(C)(C)c1ccc(-c2ccc(/C=C/C(=O)O)c(Oc3ccc(OC(F)(F)F)cc3)c2)cc1 [Compound 478]
17% | 14% | 70% | >99% | O=C(O)CCc1ccc(-c2ccc(OC(F)(F)F)cc2)cc1Oc1ccc(OC(F)(F)F)cc1 [Compound 479]
17% | 22% | 80% | >99% | CC(C)(C)c1ccc(-c2ccc(CCC(=O)O)c(Oc3ccc(OC(F)(F)F)cc3)c2)cc1 [Compound 480]
19% | 16% | 70% | >99% | CCCCc1ccc(Oc2cc(-c3ccc(OC(F)(F)F)cc3)ccc2OCC(=O)O)cc1 [Compound 481]
0% | 8% | 76% | >99% | CC(C)(C)c1ccc(Oc2cc(-c3cc(Cl)ccc3Cl)ccc2/C=C/C(=O)O)cc1 [Compound 483]
0% | 7% | 73% | >99% | CC(C)(C)c1ccc(Oc2cc(-c3cc(Cl)ccc3Cl)ccc2CCC(=O)O)cc1 [Compound 484]
0% | 6% | 11% | 69% | CC(C)(C)c1ccc(Oc2cc(-c3cccc([N+](=O)[O-])c3)ccc2OCC(=O)O)cc1 [Compound 485]
0% | 3% | 26% | 98% | O=C(O)/C=C/c1ccc(-c2ccc(OC(F)(F)F)cc2)cc1OCCCOCc1ccccc1 [Compound 487]
0% | 10% | 36% | 91% | O=C(O)CCc1ccc(-c2ccc(OC(F)(F)F)cc2)cc1OCCCOCc1ccccc1 [Compound 488]
12% | 14% | 69% | >99% | O=C(O)/C=C/c1ccc(-c2ccc(OC(F)(F)F)cc2)cc1OCCCSc1ccccc1 [Compound 489]
6% | 13% | 91% | >99% | CC(C)c1ccccc1Oc1cc(-c2ccc(OC(F)(F)F)cc2)ccc1/C=C/C(=O)O [Compound 490]
6% | 10% | 66% | >99% | CC(C)c1ccccc1Oc1cc(-c2ccc(OC(F)(F)F)cc2)ccc1CCC(=O)O [Compound 491]
5% | 20% | >99% | >99% | O=C(O)COc1ccc(-c2ccc(OC(F)(F)F)cc2)cc1Oc1ccc(OCc2ccccc2)cc1 [Compound 492]
9% | 24% | 87% | 92% | Cc1cc(C)cc(Oc2cc(-c3ccc(C(C)(C)C)cc3)ccc2/C=C/C(=O)O)c1 [Compound 494]
8% | 64% | 98% | >99% | CC(C)(C)c1ccc(Oc2cc(-c3ccc(C(C)(C)C)cc3)ccc2/C=C/C(=O)O)cc1 [Compound 495]
4% | 9% | 85% | >99% | Cc1cc(C)cc(-c2ccc(/C=C/C(=O)O)c(Oc3ccc(C(C)(C)C)cc3)c2)c1 [Compound 496]
3% | 24% | >99% | >99% | CC(C)(C)c1ccc(Oc2cc(-c3ccc(C(C)(C)C)cc3)ccc2CCC(=O)O)cc1 [Compound 497]
1% | 4% | 44% | >99% | Cc1cc(C)cc(-c2ccc(CCC(=O)O)c(Oc3ccc(C(C)(C)C)cc3)c2)c1 [Compound 498]
